Assay results: ChEMBL document CHEMBL5608141, “Identification of compartment-specific drug sensitivities in CRC organoid-stroma co-cultures” (2024)
Non-standard residues stand in square brackets, D forms with d. Residues, ends and D or L forms follow the SMILES beside them. Arg(Me) = CNC(=N)NCCC[C@H](N)C(=O)O; d3Pal = N[C@H](Cc1cccnc1)C(=O)O; azaGly = NNC(=O)O

Tests used:
Format in all cases: functional, Homo sapiens
Parameters in all cases: dose or concentration left out as unconfirmed
Colon cancer organoid [1] = test: Identification of compartment-specific drug sensitivities in O20 CRC organoid-stroma F20 CAF co-cultures. Organoid is transduced with Lucferase2-P2A-EGFP lentivirus, fibroblast with Renilla-dsRed lentivirus. Dual-Glo Luciferase assay is used to report viability data.
Colon cancer organoid [2] = test: Identification of compartment-specific drug sensitivities in O06 CRC organoid-stroma F06 CAF co-cultures. Organoid is transduced with Lucferase2-P2A-EGFP lentivirus, fibroblast with Renilla-dsRed lentivirus. Dual-Glo Luciferase assay is used to report viability data.
Colon cancer organoid [3] = test: Identification of compartment-specific drug sensitivities in O14 CRC organoid-stroma F14 CAF co-cultures. Organoid is transduced with Lucferase2-P2A-EGFP lentivirus, fibroblast with Renilla-dsRed lentivirus. Dual-Glo Luciferase assay is used to report viability data.
[4] = Transduced with Lucferase2-P2A-EGFP lentivirus
[5] = Transduced with Renilla-dsRed lentivirus

Row | SMILES | Cell Viability (Colon cancer organoid [1]; [4]) | Cell Viability (Colon cancer organoid [1]; [5]) | Cell Viability (Colon cancer organoid [2]; [4]) | Cell Viability (Colon cancer organoid [2]; [5]) | Cell Viability (Colon cancer organoid [3]; [4]) | Cell Viability (Colon cancer organoid [3]; [5])
1 | CNC(=N)NCCC[C@H](NC(=O)[C@H](CC(C)C)NC(=O)NNC(=O)[C@H](Cc1ccccc1)NC(=O)[C@H](CO)NC(=O)[C@H](CC(N)=O)NC(=O)[C@@H](Cc1cccnc1)NC(=O)[C@H](N)Cc1ccc(O)cc1)C(=O)NCC(N)=O [KISS1-543] (H-[dY][d3Pal]NSF[azaGly]L[Arg(Me)]G-NH2) | 101.104% | 120.489% | 93.1752% | 90.9674% | 105.115% | 104.622%
2 | C[C@]1(O)C[C@@H](c2nc(-c3ccc4ccc(-c5ccccc5)nc4c3)c3c(N)nccn32)C1 [LINSITINIB] | 60.6188% | 65.9185% | 53.0716% | 100.619% | 56.8923% | 65.041%
3 | O=C(NOC[C@H](O)CO)c1ccc(F)c(F)c1Nc1ccc(I)cc1F [MIRDAMETINIB] | 3.902% | 83.5811% | 8.8965% | 49.9042% | 7.045% | 23.0385%
4 | CCS(=O)(=O)Nc1ccc(Oc2ccc(F)cc2F)c(-c2cn(C)c(=O)c3[nH]ccc23)c1 [MIVEBRESIB] | 5.758% | 64.2458% | 13.1828% | 272.686% | 15.6468% | 169.821%
5 | CN([C@@H]1CCc2c(CC(=O)O)c3ccccc3n2C1)S(=O)(=O)c1ccc(F)cc1 [MK-7246] | 94.6909% | 109.932% | 70.9731% | 124.085% | 114.74% | 112.48%
6 | C[C@@H]1CN(c2cc(-c3nn(C)c4ccc(OC5(C)CC5)cc34)ncn2)C[C@H](C)O1 [MLi-2-NC] | 112.711% | 86.6644% | 55.8067% | 87.1439% | 144.766% | 104.291%
7 | CC(=O)c1c(NS(C)(=O)=O)c2cc(-c3ccc(Cl)cc3)c(-c3ccc(Cl)cc3Cl)nc2n(C)c1=O [MRL-CB1-NC] | 159.821% | 122.581% | 117.339% | 76.9916% | 112.083% | 107.66%
8 | Cc1ccc(-c2cnc([C@@]3(O)CC[C@H](C(=O)O)C(C)(C)C3)s2)cc1Nc1cccc(C(F)(F)F)n1 [MRL-SYKi-NC] | 106.503% | 131.597% | 119.382% | 86.5869% | 134.887% | 107.343%
9 | COc1cc(C(=O)O)ncc1C#Cc1ccccc1NS(=O)(=O)c1cccc2c(N(C)C)ccnc12 [MSC-0516] | 90.203% | 109.372% | 46.2412% | 64.6541% | 102.238% | 113.463%
10 | FC(F)(F)c1ccc2c(c1)nc(-c1cccnc1)n2C1CC1 [MSD-CYP11B2-Negative-control] | 98.4614% | 114.7% | 103.115% | 83.1787% | 73.196% | 81.5774%
11 | CC(C)(O)c1cncc(-c2nc3ccc(F)cc3n2C2CC2)c1 [MSD-CYP11B2] | 80.182% | 128.543% | 83.611% | 134.058% | 89.9575% | 101.392%
12 | N#CC1(c2ccccn2)CCN(Cc2cc(C(=O)N3CCCC3)c(=O)n3ccccc23)CC1 [MSD-M1PAM-NC] | 103.159% | 109.338% | 85.4848% | 72.6928% | 93.1425% | 88.6945%
13 | N#CC1(c2ccccn2)CCN(Cc2cc(C(=O)O)c(=O)n3ccccc23)CC1 [MSD-M1PAM] | 53.4383% | 117.537% | 12.088% | 188.309% | 84.139% | 110.281%
14 | CC(=O)Nc1c(C(C)=O)c(=O)n(C)c2nc(-c3ccc(Cl)cc3Cl)c(-c3ccc(Cl)cc3)cc12 [NAPHTHYRIDINONE] | 105.882% | 98.6055% | 72.6588% | 141.036% | 155.496% | 107.032%
15 | CO[C@@H](C)c1c(Nc2ccc([C@@H](N(C)C(=O)C3CCS(=O)(=O)CC3)C(F)(F)F)cc2)cnc2cc(Cl)nn12 [NVS-MALT1-C] | 83.7008% | 108.215% | 50.6957% | 73.6522% | 71.9282% | 88.3744%
16 | CO[C@@H](C)c1c(Nc2ccc([C@H](N(C)C(=O)C3CCS(=O)(=O)CC3)C(F)(F)F)cc2)cnc2cc(Cl)nn12 [NVS-MALT1] | 88.0389% | 98.697% | 54.3511% | 83.5282% | 78.8073% | 82.3583%
17 | COc1ncc(-c2ccc3nccc(-c4ccnnc4)c3c2)cc1NS(=O)(=O)c1ccc(F)cc1F [OMIPALISIB] | 2.282% | 94.8256% | 2.362% | 34.7423% | 6.452% | 40.6761%
18 | CN1CCN(c2ccc(OC(F)(F)F)c(Nc3ncc4c(n3)-c3c(c(C(N)=O)nn3CCO)CC4)c2)CC1 [ONVANSERTIB] | 1.999% | 184.086% | 2.834% | 160.245% | 2.108% | 79.1847%
19 | Nc1nc(NCc2ccccc2)nc(-c2ccccc2CO)n1 [Ogerin] | 81.1547% | 98.0569% | 100.001% | 107.856% | 107.532% | 92.7829%
20 | CC(=O)NCC(=O)N1[C@@H]2CC[C@H]1c1ccc(Nc3ncc(C(F)(F)F)c(NC4CCC4)n3)cc12 [PF-03814735] | 4.585% | 155.761% | 12.0789% | 82.3636% | 7.804% | 45.5161%
21 | OCCn1cc(-c2cnc3nnn(Cc4ccc5ncccc5c4)c3n2)cn1 [PF-04217903] | 122.103% | 97.2338% | 88.0795% | 107.387% | 55.9796% | 102.526%
22 | C[C@H](c1ccc(F)cc1)N(Cc1cccc(C(=O)O)c1)C(=O)c1cnc2ccccc2c1 [PF-05105679] | 143.937% | 111.508% | 130.848% | 113.872% | 130.3% | 106.537%
23 | C[C@H](c1ccc(F)cc1)N(Cc1ccc(Cl)c(C(=O)O)c1)C(=O)c1cnc2ccccc2c1 [PF-05257137] | 147.232% | 103.742% | 94.0157% | 76.638% | 108.547% | 109.197%
24 | COc1ncc(F)cc1CNc1ccc(Cc2c[nH]c3ncc(C)cc23)c(F)n1 [PLX-5622] | 206.903% | 55.6932% | 82.7626% | 63.3822% | 119.621% | 35.1649%
25 | Cc1noc(C)c1-c1cnc2c(-c3ccc(C(=O)O)cc3)cn([C@@H](C)c3ccccn3)c2c1 [PLX-51107] | 17.7697% | 177.825% | 26.8486% | 312.702% | 39.3332% | 170.275%
26 | Cn1cc(CNCC2CCN(c3ncc(C(=O)NO)cn3)CC2)c2ccccc21 [QUISINOSTAT] | 1.348% | 37.1921% | 1.095% | 190.694% | 6.037% | 54.4916%
27 | CC(C)(C)c1cc(NC(=O)Nc2ccc(-c3cn4c(n3)sc3cc(OCCN5CCOCC5)ccc34)cc2)no1 [QUIZARTINIB] | 58.8072% | 111.29% | 26.1053% | 134.448% | 48.7226% | 98.8717%
28 | CN(C)C(=O)c1cc2cnc(Nc3ccc(N4CCNCC4)cn3)nc2n1C1CCCC1 [RIBOCICLIB] | 36.7036% | 144.514% | 54.2961% | 126.231% | 43.0147% | 103.263%
29 | O=C(CCCCCCNC(=O)c1cnc(N(c2ccccc2)c2ccccc2)nc1)NO [RICOLINOSTAT] | 159.49% | 130.22% | 80.064% | 143.43% | 136.319% | 100.142%
